Test results from patent US20020111486A1, “Transition metal-cyclopentadienyl-tropane conjugates” (priority 1999, published 2002).

Key:
Conditions in all cases: mean±SEM; rat striatal and cortical tissues
norepinephrine (NET) = molecular target: T1, norepinephrine (NET) (Rattus norvegicus, UniProt Q63380); test: Norepinephrine transporter binding affinity in rat tissue
T1 construct: from tissue
Procedure: (§1) The binding affinities (mean±SEM) of compounds 1a, 1b, 1c, 1d, and 1e for the dopamine transporter (DAT), the serotonin transporter (5-HTT), and norepinephrine (NET) were evaluated in, respectively, rat striatal and cortical tissues according to methods described in Tamagnan et al., Advances in Neurology, Parkinson's Disease. 80: 91-103 (1999). The results are summarized in Table 1 below. β-CIT was run concurrently as a control.

[1] = molecular target: T2, serotonin transporter (5-HTT) (Rattus norvegicus, UniProt P31652); test: Serotonin transporter binding affinity in rat tissue
T2 construct: from tissue
T2 sequence (P31652 whole entry): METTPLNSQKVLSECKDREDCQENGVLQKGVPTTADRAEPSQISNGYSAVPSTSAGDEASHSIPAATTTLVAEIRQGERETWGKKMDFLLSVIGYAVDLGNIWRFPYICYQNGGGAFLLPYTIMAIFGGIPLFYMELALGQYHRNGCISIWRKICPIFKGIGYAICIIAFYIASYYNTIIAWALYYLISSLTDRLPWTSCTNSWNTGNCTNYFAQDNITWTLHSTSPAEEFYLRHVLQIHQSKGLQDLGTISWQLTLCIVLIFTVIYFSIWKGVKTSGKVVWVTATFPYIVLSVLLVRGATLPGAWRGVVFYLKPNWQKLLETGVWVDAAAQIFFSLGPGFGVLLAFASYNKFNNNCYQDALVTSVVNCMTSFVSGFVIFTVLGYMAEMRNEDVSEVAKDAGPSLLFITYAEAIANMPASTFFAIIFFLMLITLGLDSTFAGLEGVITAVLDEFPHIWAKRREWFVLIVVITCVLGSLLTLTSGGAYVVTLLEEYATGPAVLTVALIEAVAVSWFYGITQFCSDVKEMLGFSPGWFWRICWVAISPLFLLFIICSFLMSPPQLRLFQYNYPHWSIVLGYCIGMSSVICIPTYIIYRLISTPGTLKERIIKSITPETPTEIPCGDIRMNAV
Procedure: as §1

[2] = molecular target: T3, dopamine transporter (DAT) (Rattus norvegicus, UniProt P23977); test: Dopamine transporter binding affinity in rat striatal tissue
T3 construct: from tissue; host or cells: rat striatal tissue
T3 sequence (P23977 whole entry): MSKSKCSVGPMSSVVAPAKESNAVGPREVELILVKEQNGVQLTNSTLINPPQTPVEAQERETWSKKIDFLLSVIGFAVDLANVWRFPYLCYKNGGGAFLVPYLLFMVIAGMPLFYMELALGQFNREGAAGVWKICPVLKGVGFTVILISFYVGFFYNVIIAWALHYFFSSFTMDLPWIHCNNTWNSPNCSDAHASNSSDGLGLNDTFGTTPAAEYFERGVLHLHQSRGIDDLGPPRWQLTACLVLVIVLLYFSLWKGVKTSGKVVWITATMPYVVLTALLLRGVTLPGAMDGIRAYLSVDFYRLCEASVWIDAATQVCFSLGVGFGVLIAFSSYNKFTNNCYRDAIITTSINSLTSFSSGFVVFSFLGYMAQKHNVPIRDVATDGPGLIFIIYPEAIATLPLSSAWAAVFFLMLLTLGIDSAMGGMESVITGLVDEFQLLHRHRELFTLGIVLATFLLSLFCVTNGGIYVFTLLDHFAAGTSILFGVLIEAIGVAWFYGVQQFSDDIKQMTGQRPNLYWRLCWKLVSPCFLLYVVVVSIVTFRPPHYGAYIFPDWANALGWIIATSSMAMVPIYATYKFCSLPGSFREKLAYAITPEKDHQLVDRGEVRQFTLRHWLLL
Procedure: as §1

T1 sequence (Q63380 1-617): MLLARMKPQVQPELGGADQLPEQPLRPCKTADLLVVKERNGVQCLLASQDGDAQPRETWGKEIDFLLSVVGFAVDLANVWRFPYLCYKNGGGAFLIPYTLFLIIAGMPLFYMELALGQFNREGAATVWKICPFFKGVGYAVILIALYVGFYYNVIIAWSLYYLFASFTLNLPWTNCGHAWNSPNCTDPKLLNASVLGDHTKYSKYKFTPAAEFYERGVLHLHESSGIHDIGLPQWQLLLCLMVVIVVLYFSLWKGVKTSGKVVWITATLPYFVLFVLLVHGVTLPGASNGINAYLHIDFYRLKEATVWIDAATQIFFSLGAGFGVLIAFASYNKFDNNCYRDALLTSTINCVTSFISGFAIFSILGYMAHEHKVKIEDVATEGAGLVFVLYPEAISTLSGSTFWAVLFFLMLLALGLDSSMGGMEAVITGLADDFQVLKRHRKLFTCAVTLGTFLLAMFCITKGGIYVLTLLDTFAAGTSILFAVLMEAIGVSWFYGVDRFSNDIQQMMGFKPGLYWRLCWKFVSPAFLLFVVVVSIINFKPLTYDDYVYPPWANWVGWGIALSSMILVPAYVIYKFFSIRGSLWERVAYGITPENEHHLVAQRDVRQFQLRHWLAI

Molecule | Ki (norepinephrine (NET)) [nM] | Ki [1] [nM] | Ki [2] [nM]
3-(4-Chlorophenyl)-8-(3-tricarbonylrhenatocyclopentadienyloxy-carbonylpropyl)-8-aza-bicyclo[3.2.1 ]octane-2-carboxylic acid methyl ester [Compound 1b] | 74 ± 8.2 | 5.28 ± 0.21 | 4.18 ± 0.33
N-(4-oxo-4-tricarbonylcyclopentadienylrhenio)-2β-hydroxymethyl-3β-(4-chlorophenyl)-nortropane [Compound 1a] | 74 ± 8.2 | 13.3 ± 1 | 13 ± 1.8
8-Methyl-3β-[4 carbonyl -(cyclopentadienyltricarbonyl rhenium)-phenyl]-8-azabicyclo[3.2.1 ]octane-2β-carboxylic acid methyl ester [Compound 1c] | > 30000 | > 10000 | > 10000
COC(=O)C1C(c2ccc(I)cc2)CC2CCC1N2C (stereo not drawn) [β-CIT, β-Carbomethoxy-3β-(4-iodophenyl) tropane, reference compound] | 2.8 ± 0.4 | 0.46 ± 0.06 | 0.96 ± 0.15
3β-(4-Chlorophenyl)-8-(4-cyclopentadienyltricarbonyl rhenium-butyl)-8-azabicyclo[3.2.1 ]octane-2β-carboxylic acid methyl ester [Compound 1d] | 199 ± 30 | 1.14 ± 0.16 | 5.45 ± 0.64
